Experimental data: patent US20260234125A1, “CYCLIC AMINE DERIVATIVE, AND COMPOSITION AND USE THEREOF” (SHANGHAI JINGXIN BIOMEDICAL CO., LTD., priority 2023, published 2026)

What was measured:
[1] = tested on: Salmonella typhimurium TA98; assay: Salmonella typhimurium reverse mutation test, TA98; assay type: cell-based; parameters: key: + indicates a positive mutagenic result; − indicates a negative mutagenic result
Protocol: (§1) The revived strains or a single colony from the master plate were inoculated into the broth, and cultured in a thermostat gas bath vibrator at 100 to 120 rpm and 37±1° C. for 10 to 16 hours, marked and stored for later use. The bottom agar medium (containing an appropriate amount of agar, Vogel-Bonner buffer, 20% glucose solution and 20% magnesium sulfate solution) was poured into a six-well plate, approximately […] into each well, and allowed to cool and solidify naturally, marked each well and stored for later use.
(§2) Three wells were set up in each group for parallel experiments. The top agar medium was sterilized under high pressure and kept warm at about 65° C. In each test tube, 0.1 mL of negative control (DMSO) or positive control or test sample, 0.1 mL of bacterial solution suspension, 0.5 mL of phosphate buffer (0.2M PBS) (−S9) or 0.5 mL of S9 mixed solution (+S9) and 2.5 mL top culture medium were added, after vortex mixing, and then quickly and evenly spread on the culture dish which was already spreaded with the bottom agar medium. After natural cooling and solidification, the culture dish was inverted and placed in a 37° C. incubator for 48 to 72 hours. After culturing for 48 to 72 hours, the culture dish was taken out, and the number of revertant colonies in each well was counted, the growth background was observed under a microscope to determine whether there was antibacterial or bactericidal activity, and the experimental results were recorded.

[2] = Exposure determination in beagle dogs; assay type: in vivo; conditions: dog, single oral gavage 4.5 mg/kg, plasma
Protocol: • 1. Experimental purpose: The purpose of this test is to test the exposure of the compound in beagle dogs • 2. Experimental methods: Beagle dogs were housed with a standard light cycle (12 hours light/12 hours dark), at a room temperature of 18-26° C. and a relative humidity of 40-70%, with free access to water and normal diet. Five days prior to the study, the beagle dogs were randomly assigned to groups based on their body weight for the study, including an oral administration group (n=3/group). The administration volume was calculated according to the weight of the animals on the day of administration, and the administration volume was 5 mL/kg, the single oral gavage administration was performed at a dose of 4.5 mg/kg, and the solvent was 1% HEC and 0.25% Tween 80 in Water. Blood was collected from the forelimb vein or other suitable veins at 0.5 h, 1 h, 2 h, 4 h, 6 h, 8 h, 12 h, 24 h, 48 h, 72 h and 96 h after administration. About 1 mL of each sample was collected, K2-EDTA anticoagulated, placed on ice after collection, and within 1 hour, centrifuged to separate plasma (centrifugation conditions: 2200 g, 10 minutes, 2-8° C.) for blood drug concentration detection.

[3] = tested on: Salmonella typhimurium TA1535; assay: Salmonella typhimurium reverse mutation test, TA1535; assay type: cell-based; parameters: key: + indicates a positive mutagenic result; − indicates a negative mutagenic result
Protocol: as §1, §2

human Apo(a) protein = target: T1, human Apo(a) protein (Homo sapiens, UniProt P08519); assay: BLI affinity of compounds to Apo(a); assay type: binding; conditions: biotinylated apolipoprotein(a) on SA sensor, compound 100 nM
T1 construct: biotin (biotinylated)
T1 sequence (P08519 20-2040): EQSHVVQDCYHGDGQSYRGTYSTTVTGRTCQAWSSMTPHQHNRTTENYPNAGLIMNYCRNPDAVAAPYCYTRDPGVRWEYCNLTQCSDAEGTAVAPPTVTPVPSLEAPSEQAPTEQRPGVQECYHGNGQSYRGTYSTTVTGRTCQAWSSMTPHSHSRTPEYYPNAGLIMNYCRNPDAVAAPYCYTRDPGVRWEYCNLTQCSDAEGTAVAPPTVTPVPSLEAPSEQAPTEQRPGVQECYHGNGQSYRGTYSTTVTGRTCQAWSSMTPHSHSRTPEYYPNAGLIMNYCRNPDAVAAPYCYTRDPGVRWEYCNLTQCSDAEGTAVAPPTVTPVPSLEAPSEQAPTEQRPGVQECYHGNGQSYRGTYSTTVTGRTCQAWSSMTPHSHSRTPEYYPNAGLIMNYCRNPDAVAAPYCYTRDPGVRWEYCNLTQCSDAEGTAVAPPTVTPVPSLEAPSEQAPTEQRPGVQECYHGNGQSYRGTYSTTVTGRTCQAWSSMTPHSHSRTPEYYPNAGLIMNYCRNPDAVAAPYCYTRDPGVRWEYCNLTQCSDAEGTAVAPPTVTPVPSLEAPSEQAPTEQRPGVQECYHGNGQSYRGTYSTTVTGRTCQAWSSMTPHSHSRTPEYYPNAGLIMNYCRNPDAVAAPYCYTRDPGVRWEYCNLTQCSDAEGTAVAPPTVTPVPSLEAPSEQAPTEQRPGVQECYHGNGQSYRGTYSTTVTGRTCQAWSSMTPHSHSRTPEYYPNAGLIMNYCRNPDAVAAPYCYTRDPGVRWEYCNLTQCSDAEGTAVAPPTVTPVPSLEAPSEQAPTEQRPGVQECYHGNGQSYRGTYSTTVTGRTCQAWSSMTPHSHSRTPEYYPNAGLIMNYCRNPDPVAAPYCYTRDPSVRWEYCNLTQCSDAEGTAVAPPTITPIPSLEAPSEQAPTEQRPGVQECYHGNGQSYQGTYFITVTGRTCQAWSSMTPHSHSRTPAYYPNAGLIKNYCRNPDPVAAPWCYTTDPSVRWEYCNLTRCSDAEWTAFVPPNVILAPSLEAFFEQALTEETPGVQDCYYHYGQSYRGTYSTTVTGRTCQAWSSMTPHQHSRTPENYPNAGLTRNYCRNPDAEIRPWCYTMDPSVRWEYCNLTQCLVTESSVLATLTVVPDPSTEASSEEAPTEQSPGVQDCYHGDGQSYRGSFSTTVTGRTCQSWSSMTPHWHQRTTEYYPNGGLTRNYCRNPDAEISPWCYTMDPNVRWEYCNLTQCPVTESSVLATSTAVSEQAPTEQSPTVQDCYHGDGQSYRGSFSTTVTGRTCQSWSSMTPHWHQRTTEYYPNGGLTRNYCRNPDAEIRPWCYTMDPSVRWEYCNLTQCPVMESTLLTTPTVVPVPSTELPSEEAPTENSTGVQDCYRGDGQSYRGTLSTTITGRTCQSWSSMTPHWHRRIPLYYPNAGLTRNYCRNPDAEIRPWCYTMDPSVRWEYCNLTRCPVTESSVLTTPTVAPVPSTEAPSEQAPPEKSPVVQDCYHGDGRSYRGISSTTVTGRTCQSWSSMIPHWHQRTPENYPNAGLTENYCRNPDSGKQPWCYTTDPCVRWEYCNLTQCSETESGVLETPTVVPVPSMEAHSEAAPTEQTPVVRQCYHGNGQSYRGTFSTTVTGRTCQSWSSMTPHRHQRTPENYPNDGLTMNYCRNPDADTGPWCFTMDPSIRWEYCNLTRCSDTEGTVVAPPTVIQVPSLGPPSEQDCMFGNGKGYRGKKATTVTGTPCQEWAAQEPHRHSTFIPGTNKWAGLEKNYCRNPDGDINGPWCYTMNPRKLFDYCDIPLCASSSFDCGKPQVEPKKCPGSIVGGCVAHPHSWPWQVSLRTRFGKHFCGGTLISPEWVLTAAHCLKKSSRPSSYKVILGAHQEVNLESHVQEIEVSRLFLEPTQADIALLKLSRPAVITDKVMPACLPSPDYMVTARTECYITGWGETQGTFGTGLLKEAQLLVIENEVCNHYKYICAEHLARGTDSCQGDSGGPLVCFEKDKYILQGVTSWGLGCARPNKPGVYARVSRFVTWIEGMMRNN
Protocol: • 1. Experimental purpose: The purpose of this test is to test the affinity of the compounds of the present disclosure to Apo(a) • 2. Experimental instruments and reagents: • Molecular interaction analyzer (ForteBio Octet red 96e), • SA sensor (ForteBio), • 96-well plates were purchased from Greine, • 3. Experimental methods:
Prepared two 96-well plates, one as a sample plate and another as a pre-wett plate, curing buffer was added to a 200 μL well of the pre-wet plate, and the SA sensor was pre-wetted for at least ten minutes. All reagents and samples were added to another black sample plate, after the sample addition was completed, the sensor plate and the sample plate were placed into the ForteBio Octet red 96e instrument. The program was set up in sequence for detection. The experimental temperature was set to 30° C. and the acquisition frequency was set at 5.0 Hz. The biosensor was run in 1×PBS, pH7.4, 0.02% Tween-20, 0.1% BSA in the first column for 60 seconds, which was the baseline step. Biotinylated apolipoprotein(a) was diluted to 40 μg/ml with 1×PBS, pH7.4, 0.02% Tween-20, 0.1% BSA, and added to the second column, where it was run for a period of time until the amount of curing on the sensor reaches 2.0 nm. The biosensor was run in 1×PBS, pH7.4, 0.02% Tween-20, 0.1% BSA in the third column for 60 seconds, which was the baseline step. The compound was diluted to 100 nM with 1×PBS, pH7.4, 0.02% Tween-20, 0.1% BSA, and added to the fourth column, where the sensor was run for 60 seconds. The sensor was run in 1×PBS, pH7.4, 0.02% Tween-20, 0.1% BSA in the third column for 120 seconds, during this process, the compound dissociated from the sensor. The affinity constant KD reflects the size of the interaction binding ability. When the concentration of the analyte is at KD, the equilibrium signal Req is half of Rmax.

Structure (SMILES) | mutagenicity ([1]; TA98, +S9, 62 μg/dish) | mutagenicity ([1]; TA98, +S9, 185 μg/dish) | mutagenicity ([1]; TA98, +S9, 556 μg/dish) | mutagenicity ([1]; TA98, +S9, 1667 μg/dish) | mutagenicity ([1]; TA98, +S9, 5000 μg/dish) | mutagenicity ([1]; TA98, −S9, 62 μg/dish) | mutagenicity ([1]; TA98, −S9, 185 μg/dish) | mutagenicity ([1]; TA98, −S9, 556 μg/dish) | mutagenicity ([1]; TA98, −S9, 1667 μg/dish) | mutagenicity ([1]; TA98, −S9, 5000 μg/dish) | AUC(0-inf) [2] [ng·h/mL] | mutagenicity ([3]; TA1535, +S9, 62 μg/dish) | mutagenicity ([3]; TA1535, +S9, 185 μg/dish) | mutagenicity ([3]; TA1535, +S9, 556 μg/dish) | mutagenicity ([3]; TA1535, +S9, 1667 μg/dish) | mutagenicity ([3]; TA1535, +S9, 5000 μg/dish) | mutagenicity ([3]; TA1535, −S9, 62 μg/dish) | mutagenicity ([3]; TA1535, −S9, 185 μg/dish) | mutagenicity ([3]; TA1535, −S9, 556 μg/dish) | mutagenicity ([3]; TA1535, −S9, 1667 μg/dish) | further results
O=C(O)[C@@H](Cc1cccc(CN(Cc2cccc(C[C@H](C(=O)O)[C@H]3CCNC3)c2)Cc2cccc(C[C@H](C(=O)O)[C@H]3CCNC3)c2)c1)[C@H]1CCNC1 [Comparative Example 1, reference compound] | − | − | + | + | + | − | + | + | + | + | 37400 | − | − | − | − | − | − | − | − | − | mutagenicity ([3]; TA1535, −S9, 5000 μg/dish): −
O=C(O)[C@@H](Cc1cccc(CN(Cc2cccc(C[C@H](C(=O)O)[C@H]3CCNC3)c2)C(=O)c2cccc(C[C@H](C(=O)O)[C@H]3CCNC3)c2)c1)[C@H]1CCNC1 [Example 5] | − | − | − | − | − | − | − | − | − | − | 119000 | − | − | − | − | − | − | − | − | − | mutagenicity ([3]; TA1535, −S9, 5000 μg/dish): −; Kd (human Apo(a) protein): 10.9 nM
